Where two headings read alike, the source gives them in different places.
Assay: Second sacrificial agent testing protocol: paste air measurements with DDBS (0.0125 wt %) and rating; as to Overall performance rating (second protocol rating): key: 0: Fail; 1: Poor; 2: Good; 3: Preferred; 4: Most preferred; as to SA Rating (0-4): key: 0: Fail; 1: Poor; 2: Good; 3: Preferred; 4: Most preferred
Protocol: The second sacrificial agents evaluation protocol has been designed to assess the relative potential value of candidate sacrificial agents with a maximum of five paste air measurements.
The first two measurements (of entrained air) are carried out with a standard AEA in a portland cement paste and in a FA:cement paste; these two tests provide reference values which can be used for the relative assessment of a series of sacrificial agents. The other three paste air measurements pertain to the properties and effectiveness of the sacrificial agents.
1. Measurement of the air entrained by a standard air-entraining admixture in a cement paste of fixed composition and fluidity; the latter is a reference system which provides ‘reference’ air entrainment values (‘A’ in FIG. 8).
2. […] The difference between ‘B’ and ‘A’ in FIG. 8 is the reduction in air entrainment due to the presence of the fly ash; this is illustrated as ‘C’ in FIG. 8.
In the present SA testing and evaluation protocol, the fly ash selected should remain the same for the entire set of additives tested, in order to provide reliable relative performance ranking. For the present series of test, the Fly Ash selected was the one identified as B1 in Table 1 below; the physico-chemical properties of this fly ash are reported in Table 1.
In testing for the relative performance of the sacrificial agent, the sacrificial agent dosage was chosen in the range 0-0.1 wt %, which corresponds to typical dosage values observed in paste, mortar and concrete tests reported in Tables 2, 3 and 4 and Tables 7 to 34.
3. Measurement of the air entrainment of the SA, by itself, in a cement-only paste at a dosage of 0.1 wt %; this is illustrated as ‘D’ in FIG. 8.
4. Measurement of the air entrained by DDBS in the FA-cement paste comprising 0.05% wt SA, under the same conditions as described in 2 above. The air entrainment value observed in this system, compared to that observed in the absence of the SA, yields the air recovery due to the SA, and is illustrated schematically as ‘E’ in FIG. 8.
5. Same as in 4 above, but with a higher SA concentration at 0.1 wt %; the air entrainment observed, again compared to the value observed in the absence of the SA, yields a second value of air recovery by the SA and is illustrated as ‘F’ in FIG. 8.
For the relative performance rating of the group of products chosen as potential SA and listed in Table 36, the following rating scheme (Tables A and B) was adopted (referring to FIG. 8 and quantities defined therein):
1: Chemical name of compound tested as potential sacrificial agent • Col. 2: Level of air entrainment by the candidate sacrificial agent, at a concentration of 0.1 wt %, in a Portland cement paste ([…]) • Col. […] 5: Sacrificial agent overall rating index (described below) • Col. 6: Hydrophilic-Lipophilic Balance (HLB) values of candidate sacrificial agent (source and significance of HLB data given below) • Col. 7: Logarithm of the Oil(octanol)/water partition coefficient (Kow) of the candidate sacrificial agents (source and significance of data given below).

[1] = Portland cement paste (PCA), […]
[2] = sacrificial agent overall rating index
[3] = sum of ratings of air entrainment recovery by 0.05% and 0.1% SA, DDBS 0.0125 wt %, 50:50 B1 fly ash:cement paste
[4] = B1 FA/cement paste, 0.0125 wt % DDBS, 0.05 wt % SA
[5] = B1 FA/cement paste, 0.0125 wt % DDBS, 0.10 wt % SA

Compound	B1 + 0.0125% DDBS + 0.05% SA (air entrainment) (B1 FA/cement paste, […])	B1 + 0.0125% DDBS + 0.1% SA (air entrainment) (B1 FA/cement paste, […])	PCA + 0.1% SA (level of air entrainment by the candidate sacrificial agent) [1]	SA Rating (0-4) [2]	Overall performance rating (second protocol rating) [3]	B1 + 0.0125% DDBS + 0.05% SA (air entrainment) [4]	B1 + 0.0125% DDBS + 0.1% SA (air entrainment) [5]	further results
O=S(=O)([O-])c1cc(O)c2c(O)cc(S(=O)(=O)[O-])cc2c1.[Na+].[Na+]	2.0	2.5	0.0	0	–	–	–	–
CC(=O)CC(C)C [Methyl isobutylketone]	–	–	–	–	2	–	–	–
COc1ccc(OC)cc1 [p-Dimethoxybenzene]	4.7	4.0	0.7	2	–	–	–	Overall performance rating (second protocol rating): 2
CCOC(=O)CC [Ethylpropionate]	–	–	0.9	3	3	4.9	4.6	–
CCOCCOC(C)=O [Ethylene glycol mono-ethyl ether acetate]	–	–	–	–	–	–	–	Overall performance rating (second protocol rating): 2
CCCCCCCC(=O)OC [Methyloctanoate]	–	–	0.0	2	2	4.8	2.2	–
Nc1c(O)cc(S(=O)(=O)[O-])c2ccccc12.[Na+]	–	–	0.4	0	–	3.1	2.9	–
CC(C)(C)O [t-Butanol]	–	–	–	–	–	–	–	Overall performance rating (second protocol rating): 4
COP(=O)([O-])OC.[Na+] [Dimethylphosphate Na]	2.5	2.7	1.3	0	–	–	–	–
O=C(O)c1ccc(O)cc1 [4-Hydroxybenzoic acid]	2.1	2.4	1.0	0	–	–	–	–
CCCOCCO [Ethylene Glycol n-Propyl Ether]	–	–	1.4	4	4	7.4	7.4	–
Nc1ccccc1 [Aniline]	–	–	–	–	2	–	–	–
CCCCCCCCCCCC(=O)OC [Methyllaurate]	–	–	1.0	1	1	4.6	2.8	–
CC(O)CN(CC(C)O)CC(C)O (stereo not drawn) [Tri-iso-propanolamine]	–	–	–	–	–	–	–	Overall performance rating (second protocol rating): 4
CCCO [n-Propanol]	–	–	–	–	–	–	–	B1 + 0.0125% DDBS + 0.05% SA (air entrainment): 3.5; B1 + 0.0125% DDBS + 0.1% SA (air entrainment): 4.4; Overall performance rating (second protocol rating): 1; PCA + 0.1% SA (level of air entrainment by the candidate sacrificial agent): 2.0; SA Rating (0-4): 1
P(EG-ran-propylene-glycol) 2500	–	–	–	–	–	–	–	Overall performance rating (second protocol rating): 4
CCC(C)=O [2-Butanone (Methyl ethyl ketone)]	3.7	4.1	0.3	1	–	–	–	–

Compound	B1 + 0.0125% DDBS + 0.05% SA (air entrainment) (B1 FA/cement paste, […])	B1 + 0.0125% DDBS + 0.1% SA (air entrainment) (B1 FA/cement paste, […])	PCA + 0.1% SA (level of air entrainment by the candidate sacrificial agent) [1]	SA Rating (0-4) [2]	Overall performance rating (second protocol rating) [3]	B1 + 0.0125% DDBS + 0.05% SA (air entrainment) [4]	B1 + 0.0125% DDBS + 0.1% SA (air entrainment) [5]	further results
CC(O)CNCC(C)O (stereo not drawn) [Di-isopropanolamine]	–	–	–	–	–	–	–	B1 + 0.0125% DDBS + 0.05% SA (air entrainment): 4.6; B1 + 0.0125% DDBS + 0.1% SA (air entrainment): 5.5; Overall performance rating (second protocol rating): 3; PCA + 0.1% SA (level of air entrainment by the candidate sacrificial agent): 1.1; SA Rating (0-4): 3
O=S(=O)([O-])c1ccc2cc(S(=O)(=O)[O-])ccc2c1.[Na+].[Na+] [2,6-naphthalene disulfonate Na]	–	–	–	–	–	–	–	B1 + 0.0125% DDBS + 0.05% SA (air entrainment): 2.3; B1 + 0.0125% DDBS + 0.1% SA (air entrainment): 3.0; PCA + 0.1% SA (level of air entrainment by the candidate sacrificial agent): 0.0; SA Rating (0-4): 0
CC(=O)CC(C)C [Methyl isobutylketone (MIBK)]	–	–	0.3	2	–	5.6	3.9	–
CC#N [Acetonitrile]	2.3	2.5	0.5	0	–	–	–	–
CC1COC(=O)O1 (stereo not drawn) [Propylene carbonate]	–	–	0.4	0	–	2.5	2.9	–
CC(O)COC(C)COC(C)CO (stereo not drawn) [tri-Propylene glycol]	7.8	9.2	1.6	4	–	–	–	Overall performance rating (second protocol rating): 4
NCCOCCO [2-(2-Aminoethoxy)ethanol]	–	–	0.5	1	1	3.1	3.9	–
CCC(=O)OC [Methylpropionate]	2.7	3.5	0.2	0	–	–	–	–
OCCNCCO [Di-ethanolamine]	2.7	2.6	0.3	0	–	–	–	–
CCCCCCCCCCO [1-Decanol]	2.1	1.7	0.0	0	–	–	–	–
CCOC(C)=O [Ethyl acetate]	3.2	3.3	0.8	0	–	–	–	–
CC(O)C(C)O (stereo not drawn) [2,3-Butanediol]	3.6	3.7	1.2	0	–	–	–	–
O=P(O)(O)OP(=O)(O)OP(=O)(O)O [Sodium tripolyphosphate]	–	–	0.2	0	–	2.2	1.9	–
OCc1ccccc1 [Benzyl alcohol]	–	–	0.6	3	3	4.1	5.4	–
CCCCNC(N)=O [n-butyl urea]	–	–	2.1	4	4	5.3	7.5	–
CCc1ccc(S(=O)(=O)O)cc1 [4-Ethyl benzene sulfonic acid]	–	–	1.3	3	3	4.8	6.2	–
